In PMC3646888 (PLoS ONE, 2013):

Target: T1, CYP1A2r (Rattus norvegicus, UniProt P04799)
T1 sequence (P04799 1-513): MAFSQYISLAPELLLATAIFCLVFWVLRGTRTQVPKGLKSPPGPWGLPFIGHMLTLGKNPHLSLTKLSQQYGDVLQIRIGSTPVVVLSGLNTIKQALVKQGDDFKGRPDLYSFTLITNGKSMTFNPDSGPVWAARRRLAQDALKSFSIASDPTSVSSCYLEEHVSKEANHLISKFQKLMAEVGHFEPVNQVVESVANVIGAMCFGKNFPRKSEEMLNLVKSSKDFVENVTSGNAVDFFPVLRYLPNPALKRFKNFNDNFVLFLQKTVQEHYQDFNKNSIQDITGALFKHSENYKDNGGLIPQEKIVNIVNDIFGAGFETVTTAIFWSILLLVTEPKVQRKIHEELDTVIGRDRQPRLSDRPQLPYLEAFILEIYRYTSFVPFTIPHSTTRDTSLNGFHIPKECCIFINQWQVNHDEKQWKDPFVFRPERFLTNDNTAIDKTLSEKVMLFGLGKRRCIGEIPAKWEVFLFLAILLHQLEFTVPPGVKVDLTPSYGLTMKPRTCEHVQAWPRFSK
Assay: Fluorescence-based CYP assay, recombinant CYP1A2r, substrate EFC
Type: in vitro ADME
Settings: concentrations up to 80 µM
Experimental: These assays were performed by methods similar to those described by VanAlstine and Hough, Stresser et al., Wulff et al., Henderson et al., and Crespi et al., with minor modifications. All incubations were performed in a final volume of 200 µL of 50 mM potassium phosphate buffer at pH 7.4 containing 1% acetonitrile. CYP inhibitor studies were performed according to the parameters of Table 1. Substrate concentrations were chosen to be near known Km values. As described in the references cited, two different NADPH regenerating systems were used depending on the substrates used (Table 1). […] Samples were pre-incubated at 37°C for the designated times, and the reactions were initiated with the addition of a substrate and enzyme mixtures (Table 1). […] For the assays utilizing the “high” regenerating system, enzyme reactions were terminated at the designated time by the addition of 75 µL of 2N NaOH, followed by a 2 h post-incubation at 37°C. Product formation was then measured at the designated wavelengths (Table 1). For the “low” regenerating system assays, blanks and standards were prepared in 0.1 mL buffer without the regenerating system. For the “high” regenerating system assays, blanks and standards containing 0.1 mL of buffer received 75 µL of 2N NaOH following pre-incubation.

SMILES: Clc1ccc(COC(Cn2ccnc2)c2ccc(Cl)cc2Cl)c(Cl)c1 (stereo not shown) [miconazole]
- Inhibition of CYP1A2r (in words): did not inhibit
